Measurements reported in PubChem BioAssay (NCI).
Values joined by “and” are separate entries in the source; they are usually repeats but may differ in a detail not shown here. Equal values may be shown once.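 Where inhibition never reached the appropriate level, the endpoint shown equals the highest concentration tested. Otherwise, values were interpolated linearly from a five-concentration, 48-hour dose response in 96-well plates. Abbreviation: GI50, concentration required for 50% inhibition of growth. TGI is the concentration that stops growth completely.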

Key:
Assay in all cases: inhibition of tumour cell growth, NCI panel, 48 h
HOP-92 NSCLC = tested on: HOP-92 NSCLC
M14 melanoma = tested on: M14 melanoma
UACC-62 melanoma = tested on: UACC-62 melanoma
SN12C renal = tested on: SN12C renal
A498 renal = tested on: A498 renal
UO-31 renal = tested on: UO-31 renal
SNB-75 CNS = tested on: SNB-75 CNS
HOP-62 NSCLC = tested on: HOP-62 NSCLC
HCC-2998 colon = tested on: HCC-2998 colon
NCI-H23 lung = tested on: NCI-H23 lung
SNB-19 CNS = tested on: SNB-19 CNS

Row | Structure (SMILES) | TGI (HOP-92 NSCLC) [µM] | TGI (M14 melanoma) [µM] | TGI (UACC-62 melanoma) | TGI (SN12C renal) [µM] | TGI (A498 renal) | TGI (UO-31 renal) | TGI (SNB-75 CNS) | TGI (HOP-62 NSCLC) | TGI (HCC-2998 colon) | TGI (NCI-H23 lung) [µM] | TGI (SNB-19 CNS) | GI50 (UACC-62 melanoma) [µM] | GI50 (SN12C renal) [µM] | GI50 (A498 renal) [µM] | GI50 (UO-31 renal) [µM] | GI50 (SNB-75 CNS) [µM] | GI50 (SNB-19 CNS) [µM] | GI50 (HOP-62 NSCLC) [µM] | GI50 (HCC-2998 colon) [µM]
1 | O=C1NC(=S)NNC12c1ccccc1-c1ccccc12 | > 10 | > 10 | > 10 µM | > 10 | 9.93 µM | > 10 µM | > 10 µM | > 10 µM | > 10 µM | > 10 | – | – | – | – | – | – | – | – | –
2 | O=C(NC(CO)Cc1ccc(Oc2cc(CC(CO)NC(=O)OCc3ccccc3)ccc2OC(=O)OCc2ccccc2)cc1)OCc1ccccc1 (stereo not drawn) | 54.3 | 55.1 | – | > 100 | 50.2 µM | > 100 µM | 51.1 µM | 52.6 µM | 30.5 µM | 36.1 | > 100 µM | – | – | – | – | – | – | – | –
3 | O=C(CCc1cc(O)cc(O)c1)NCCc1cc(O)cc(O)c1 | > 100 | > 100 | > 100 µM | > 100 | > 100 µM | > 100 µM | > 100 µM | > 100 µM | > 100 µM | > 100 | > 100 µM | – | – | – | – | – | – | – | –
4 | COc1ccc(-c2c(C#N)c(O)n(NS(=O)(=O)c3ccc(C)cc3)c(=O)c2C#N)cc1 | > 100 | > 100 | > 100 µM | > 100 | > 100 µM | – | > 100 µM | > 100 µM | > 100 µM | – | > 100 µM | – | – | – | – | – | – | – | –
5 | CC(NNC(=O)CC(=O)N(C(=O)c1ccccc1)c1ccc(Cl)cc1)c1cc2ccccc2oc1=O (stereo not drawn) | > 10 | > 10 | > 10 µM | > 10 | > 10 µM | 0.275 µM | > 10 µM | > 10 µM | > 10 µM | > 10 | > 10 µM | – | – | – | – | – | – | – | –
6 | O=C(CC(=O)c1ccccc1)CC(O)(c1ccccc1)c1ccccc1 | 19.5 | 14.9 | 14.9 µM | 19.3 | 25.1 µM | 18.4 µM | 27.5 µM | 12 µM | 23.8 µM | 18.8 | 35.3 µM | – | – | – | – | – | – | – | –
7 | O=C(c1cc(Cl)cc(Cl)c1)N1CCN(C(=O)c2cc(Cl)cc(Cl)c2)C1=S | 22.4 | 27.3 | 23.5 µM | 31.1 | 31.6 µM | 6.08 µM | 27.8 µM | 33.8 µM | 31 µM | 34.6 | 37.1 µM | – | – | – | – | – | – | – | –
8 | CC(/C=N\NC(=S)N1CCCCC1)=N/NC(=S)N1CCCCC1 | 7.48 | 5.51 | 5.94 µM | 10.8 | 3.59 µM | 7.19 µM | 8.08 µM | 11 µM | 11.7 µM | 19.2 | 35.7 µM | – | – | – | – | – | – | – | –
9 | C[C@H]1C2Cc3cc(N)ccc3[C@@]1(C)CCN2CCc1ccccc1 | 90.9 | 40 | > 100 µM | > 100 | > 100 µM | > 100 µM | > 100 µM | > 100 µM | 21.7 µM | > 100 | > 100 µM | – | – | – | – | – | – | – | –
10 | CC(=O)Nc1ccc(-c2nc3ccccc3s2)cc1 | > 100 | > 100 | > 100 µM | – | 38.4 µM | > 100 µM | 90.9 µM | 45.8 µM | > 100 µM | > 100 | > 100 µM | – | – | – | – | – | – | – | –
11 | C[C@@H]1C[C@](O)([C@@H](C)Cl)C(=O)O[C@@H]2CCN3CC=C(COC(=O)[C@]1(C)O)[C@H]23 | > 100 | > 100 | > 100 µM | – | > 100 µM | > 10 µM | > 100 µM | > 100 µM | > 100 µM | > 10 | > 10 µM | – | – | – | – | – | – | – | –
12 | CC12CCC3C(CCC4=CC(O)CCC43C=O)C1(O)CCC2c1ccc(=O)oc1 (stereo not drawn) | 0.0404 | – | 0.0329 µM and 0.0521 µM | – | 0.0418 µM and 0.113 µM | 0.127 µM and 0.057 µM | 0.0544 µM and 0.0523 µM | 0.0147 µM and 0.0573 µM | 0.0665 µM and 0.22 µM | 0.0151 | 0.0224 µM and 0.101 µM | 0.00932 | 0.05 | 0.05 | 0.05 | 0.05 | 0.05 | 0.00158 | 0.0591
13 | CCCC(O)C(NC(=O)CCl)C(=O)O (stereo not drawn) | > 100 | – | > 100 µM | > 100 | > 100 µM | > 100 µM | > 100 µM | > 100 µM | > 100 µM | > 100 | > 100 µM | – | – | – | – | – | – | – | –
14 | COc1cccc2c1C(=O)c1c(O)c3c(c(O)c1C2=O)C[C@@](O)(C(=O)CO)C[C@@H]3OC1CC(N)C(OC)C(C)O1 (stereo partly drawn) | 0.631 | 0.996 | 0.227 µM | 0.644 | 0.582 µM | 1.41 µM | 0.346 µM | 0.354 µM | 0.763 µM | 0.457 | > 15.8 µM | – | – | – | – | – | – | – | –
15 | O=[N+]([O-])c1ccc(S(=O)(=O)N=Ic2ccccc2)cc1 | > 100 | > 100 | > 100 µM | > 100 | > 100 µM | > 100 µM | > 100 µM | > 100 µM | > 100 µM | > 100 | > 100 µM | – | – | – | – | – | – | – | –
16 | NCCCNCCCCNCCCN | 3.41 | 29.4 | > 100 µM | 15.4 | > 100 µM | 5.02 µM | > 100 µM | > 100 µM | > 76.7 µM | > 100 | > 100 µM | – | – | – | – | – | – | – | –
17 | Cc1ccc(-c2c3c(n(C4OC(CO)C(O)C(O)C4O)c(=S)c2C#N)CC(C)(C)CC3=O)cc1 (stereo not drawn) | > 100 | > 100 | > 100 µM | > 100 | > 100 µM | > 100 µM | > 100 µM | > 100 µM | > 100 µM | > 100 | > 100 µM | – | – | – | – | – | – | – | –
18 | COc1ccc(OC)c(C2Cc3cnc4nc(N)nc(N)c4c3C2)c1 (stereo not drawn) | 53.8 | > 100 | 51.5 µM | 56.8 | 33 µM | > 100 µM | 47.5 µM | > 100 µM | 41.9 µM | > 100 | > 100 µM | – | – | – | – | – | – | – | –
19 | O=[N+]([O-])c1cc2c(c3nonc13)OCCCCO2 | 26.3 | 17.9 | 21.5 µM | 16.1 | 47.6 µM | 19.7 µM | 22.7 µM | 16.2 µM | 35.5 µM | 25.2 | 34.6 µM | – | – | – | – | – | – | – | –
20 | C#CCN(CC#C)C(=O)C(=O)c1c[nH]c2ccc(OC)cc12 | 33.2 | 34.7 | 42.7 µM | 30 | 29.5 µM | 21.1 µM | 55.1 µM | 31.3 µM | 31 µM | 50.5 | 36.1 µM | – | – | – | – | – | – | – | –
21 | COc1ccc(C(OC(C)=O)C2C(=C(C#N)C#N)c3ccccc3C2=C(C#N)C#N)cc1 (stereo not drawn) | > 100 | > 100 | – | – | 58.6 µM | 75.1 µM | > 100 µM | 62.6 µM | 59.9 µM | 85.7 | – | – | – | – | – | – | – | – | –
22 | CCO/C=N/NC(=O)CSc1nc2ccc(I)cc2c(=O)n1Cc1ccccc1 | > 100 | > 100 | > 100 µM | > 100 | > 100 µM | > 100 µM | > 100 µM | > 100 µM | > 100 µM | > 100 | > 100 µM | – | – | – | – | – | – | – | –
23 | COc1cc(/C=C/C(=O)O)ccc1C(=O)OCc1ccccc1 | > 100 | – | > 100 µM | > 100 | > 100 µM | > 100 µM | > 100 µM | > 100 µM | > 100 µM | > 100 | > 100 µM | – | – | – | – | – | – | – | –
24 | CCOC(=O)c1cc(C2(O)CCN(CC(C)CC)C2=O)c(-c2cc(C)no2)[nH]1 (stereo not drawn) | > 100 | > 100 | > 100 µM | > 100 | > 100 µM | > 100 µM | > 100 µM | > 100 µM | > 100 µM | > 100 | > 100 µM | – | – | – | – | – | – | – | –
25 | COc1ccc(C(OCC2OC(n3cc(C)c(=O)[nH]c3=O)CC2n2cc(Cn3cc(Br)c(=O)[nH]c3=O)nn2)(c2ccccc2)c2ccccc2)cc1 (stereo not drawn) | > 100 | > 100 | > 100 µM | > 100 | > 100 µM | > 100 µM | > 100 µM | > 100 µM | > 100 µM | > 100 | > 100 µM | – | – | – | – | – | – | – | –
26 | CC(C)(C)C(=O)OC(N)/C=C/c1ccccc1 (stereo not drawn) | > 100 | > 100 | > 100 µM | > 100 | > 100 µM | > 100 µM | > 100 µM | > 100 µM | > 100 µM | > 100 | – | – | – | – | – | – | – | – | –
27 | CN1C(=O)C(CC=O)(C(C)(C)C)c2ccccc21 (stereo not drawn) | > 100 | > 100 | > 100 µM | > 100 | > 100 µM | > 100 µM | > 100 µM | > 100 µM | > 100 µM | > 100 | > 100 µM | – | – | – | – | – | – | – | –
28 | CC1(C)OC2C(O)CN3CCS[C@H]3C2O1 (stereo partly drawn) | > 100 | > 100 | > 100 µM | – | > 100 µM | > 100 µM | > 100 µM | > 100 µM | > 100 µM | > 100 | > 100 µM | – | – | – | – | – | – | – | –
29 | CC(=O)Nc1ccc(-c2nc3cc(Cl)ccc3o2)cc1 | > 50 | > 50 | > 50 µM | > 50 | > 50 µM | > 50 µM | > 50 µM | > 50 µM | > 50 µM | > 50 | > 50 µM | – | – | – | – | – | – | – | –
30 | CCCCCC(/C=C/C1CCC(=O)C1CC#C[Si](C)(C)C)OCc1ccccc1 (stereo not drawn) | 17.2 | 77.8 | 30.6 µM | 39 | > 85.8 µM | 34.3 µM | 41.3 µM | 41.5 µM | 48.1 µM | 73.6 | > 84.8 µM | – | – | – | – | – | – | – | –
